Source: paper PMC9394284, “Discovery of Novel Dual Adenosine A2A and A1 Receptor Antagonists with 1H-Pyrazolo[3,4-d]pyrimidin-6-amine Core Scaffold as Anti-Parkinson’s Disease Agents” (Pharmaceuticals, 2022)

How the values were obtained:
[1] = biological target: T1, hA1 receptor (Homo sapiens, UniProt P30542); test: radioligand binding to human A1 receptors, CHO-K1 membranes, [3H]DPCPX; settings: average of duplicate experiments
T1 sequence (P30542 1-326): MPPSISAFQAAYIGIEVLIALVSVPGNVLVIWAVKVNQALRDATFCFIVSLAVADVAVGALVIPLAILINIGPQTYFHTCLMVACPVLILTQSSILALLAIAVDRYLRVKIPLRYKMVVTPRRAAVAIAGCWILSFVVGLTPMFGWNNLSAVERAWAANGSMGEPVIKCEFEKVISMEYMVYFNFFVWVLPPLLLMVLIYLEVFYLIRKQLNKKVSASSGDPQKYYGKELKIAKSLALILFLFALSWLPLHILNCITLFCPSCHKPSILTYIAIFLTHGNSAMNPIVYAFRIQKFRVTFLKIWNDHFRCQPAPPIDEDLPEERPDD
Experimental: The radioligand-binding assays for adenosine receptors were performed at Eurofins Discovery Services (Panlabs, Taiwan). Briefly, stock solutions of the compounds were prepared in DMSO and further diluted with the incubation buffer to the desired concentration. Final DMSO concentrations in the assay were 1.0%. For adenosine A1 screening, a 10 μg aliquots of membrane preparations from human recombinant CHO-K1 cells stably expressing A1 receptors (CHO-K1-hA1AR clone3, EPDST, R200510) were incubated with 1 nM [^3H]DPCPX in incubation buffer (20 mM HEPES, pH 7.4, 10 mM MgCl2, 100 mM NaCl 1.40 nM) for 90 min at 25 °C. Nonspecific binding was estimated in the presence of 100 μM R(-)-PIA. Membranes were filtered and washed 3 times and the filters were counted to determine specifically bound [^3H]DPCPX. Chemical compounds were screened at 10 μM. For A2A screening, membrane preparations from human recombinant HEK-293 cells stably expressing A2A receptors (PerkinElmer, RBHA2AM) were incubated with 0.05 μM [^3H]CGS-21680 in incubation buffer (50 mM Tris-HCl, pH 7.4, 10 mM MgCl2, 1 mM EDTA, 2 U/mL Adenosine Deaminase) for 90 min at 25 °C. Nonspecific binding was estimated in the presence of 50.0 μM NECA. Membranes were filtered and washed 3 times and the filters were counted to determine [^3H]CGS-21680 specifically bound. For A2B screening, membrane preparations from human recombinant HEK-293 cells stably expressing A2B receptors (PerkinElmer, ES-013-M) were incubated with 1.6 nM [^3H]MRS1754 in incubation buffer (50 mM Tris-HCl, pH 6.5, 5 mM MgCl2, 1 mM EDTA, 0.01 % Bacitracin) for 90 min at 25 °C. Nonspecific binding was estimated in the presence of 100 μM NECA. Membranes were filtered and washed 3 times and the filters were counted to determine [^3H]MRS1754 specifically bound. For A3 screening, membrane preparations from human recombinant CHO-K1 cells stably expressing A3 receptors (PerkinElmer, ES-012-M) were incubated with 0.5 nM [^125I]AB-MECA in incubation buffer (25 mM HEPES, pH 7.4, 5 mM MgCl2, 1 mM CaCl2, 0.1 % BSA) for 60 min at 25 °C. Nonspecific binding was estimated in the presence of 1.0 μM IB-MECA.
IC50 values were determined by a nonlinear, least-squares regression analysis using MathIQ^TM (ID Business Solutions Ltd., Guildford, UK). Where inhibition constants (Ki) were presented, the Ki values were calculated using Cheng and Prusoff equation [18] using the observed IC50 of the compound, the concentration of radioligand employed in the assay, and the historical values for the KD of the ligand (obtained experimentally at Eurofins Panlabs, Inc.). The Hill coefficient (nH), which defines the slope of the competitive binding curve, was calculated using MathIQ^TM.

[2] = solubility (qualitative); assay type: physicochemical; settings: CF3 next to aniline, difficulties in forming salt
[3] = biological target: T2, hA2A receptors (Homo sapiens, UniProt P29274); test: radioligand binding to human A2A receptors, HEK-293 membranes; settings: average of duplicate experiments
T2 construct: purchased PerkinElmer RBHA2AM
Experimental: The binding affinities of synthesized compounds to human A2A receptors (hA2AR) were measured by assessing competitive binding of ligands to radioligand […] using membrane preparations of human recombinant HEK-293 cells expressing human A2A receptors.
The radioligand-binding assays for adenosine receptors were performed at Eurofins Discovery Services (Panlabs, Taiwan). Briefly, stock solutions of the compounds were prepared in DMSO and further diluted with the incubation buffer to the desired concentration. Final DMSO concentrations in the assay were 1.0%. […] Nonspecific binding was estimated in the presence of 100 μM R(-)-PIA. Membranes were filtered and washed 3 times and the filters were counted to determine specifically bound [^3H]DPCPX. Chemical compounds were screened at 10 μM. […] Nonspecific binding was estimated in the presence of 50.0 μM NECA. […] Nonspecific binding was estimated in the presence of 100 μM NECA. Membranes were filtered and washed 3 times and the filters were counted to determine [^3H]MRS1754 specifically bound. […] Nonspecific binding was estimated in the presence of 1.0 μM IB-MECA.
IC50 values were determined by a nonlinear, least-squares regression analysis using MathIQ^TM (ID Business Solutions Ltd., Guildford, UK). […] The Hill coefficient (nH), which defines the slope of the competitive binding curve, was calculated using MathIQ^TM.

[4] = metabolic stability in cryopreserved rat hepatocytes
Experimental: (§1) Metabolic stability of 11o was determined in cryopreserved hepatocytes from mice, rats, dogs, monkeys and human according to the SOPs of Frontage Laboratories Inc. Briefly, cryopreserved hepatocytes for pre-clinical animals and for human (BioIVT, Westbury, NY, USA) were thawed in a 37 °C water bath with gentle shaking until ice had almost melted. The suspensions were immediately transferred to a centrifuge tube (50 mL) containing pre-warmed thawing media at 37 °C with gentle handshaking to prevent the cells from settling. Cell suspensions were centrifuged at 50× g and 4 °C for 5 min. The supernatant was discarded and the pellets were resuspended in prewarmed incubation media (5 mL) at 37 °C. The percentage of viable cells in the suspension was determined by Trypan blue staining method to ensure viability of ≥70 %. […] The samples were centrifuged and aliquots of the supernatant were analyzed for parent compounds by LC/MS/MS using suitable multiple reaction monitoring (MRM) transitions. […] The disappearance of 11o and midazolam was monitored by LC/MS/MS (MRM) analysis of the hepatocyte extracts at each time point. The peak area ratio of the analyte to internal standard was obtained for each sample and the rate of disappearance of 11o was assessed by comparing the peak area ratios at various time points to the peak area ratio obtained at t = 0. The t1/2 is obtained (using the linear portion of semi-log plot of the area ratio vs. time) and the CLint values determined using well-stirred model.

[5] = metabolic stability in cryopreserved mouse hepatocytes
Experimental: as §1

[6] = metabolic stability in cryopreserved dog hepatocytes
Experimental: as §1

[7] = metabolic stability in cryopreserved human hepatocytes
Experimental: as §1

[8] = metabolic stability in cryopreserved monkey hepatocytes
Experimental: as §1

T2 sequence (P29274 whole entry): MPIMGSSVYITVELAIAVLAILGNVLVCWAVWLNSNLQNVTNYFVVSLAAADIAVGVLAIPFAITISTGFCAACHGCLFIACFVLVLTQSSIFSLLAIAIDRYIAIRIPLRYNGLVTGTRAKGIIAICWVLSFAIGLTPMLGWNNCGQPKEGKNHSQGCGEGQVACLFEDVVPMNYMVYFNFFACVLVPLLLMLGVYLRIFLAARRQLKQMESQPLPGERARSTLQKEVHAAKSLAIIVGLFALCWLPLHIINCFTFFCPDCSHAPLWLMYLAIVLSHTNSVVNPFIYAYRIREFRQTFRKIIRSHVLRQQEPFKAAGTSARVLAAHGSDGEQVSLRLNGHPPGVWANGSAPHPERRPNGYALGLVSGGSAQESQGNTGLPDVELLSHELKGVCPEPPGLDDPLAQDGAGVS

In the case of `N#Cc1cccc(-c2nc(N)nc3c2cnn3Cc2ccc(N)c(C(F)(F)F)c2)c1F` [11x, 3-(6-Amino-1-(4-amino-3-(trifluoromethyl)benzyl)-1H-pyrazolo[3,4-d]pyrimidin-4-yl)-2-fluorobenzonitrile], the Ki [1] is reported as 33 nM, the “solubility (in words)” value [2] is reported as “greatly reduced solubility” and the Ki [3] is reported as 2.71 nM.
With `Cc1ncc2n1-c1ccc(Cl)cc1C(c1ccccc1F)=NC2` [Midazolam, reference compound] the half-life at 0.2 μM ([4]; Sprague Dawley, rat, hepatocytes) was 21.9 min, the “Intrinsic Clearance” value ([4]; rat hepatocytes, midazolam 0.2 μM) was 0.0317 mL/min/10^6 Cells and the half-life at 0.2 μM ([5]; CD-1, mouse, hepatocytes) was 49.9 min. For the same compound, the “Intrinsic Clearance” value ([5]; mouse hepatocytes, midazolam 0.2 μM) was 0.0139 mL/min/10^6 Cells, the half-life at 0.2 μM ([6]; beagle, dog, hepatocytes) was 32.8 min and the “Intrinsic Clearance” value ([6]; dog hepatocytes, midazolam 0.2 μM) was 0.0211 mL/min/10^6 Cells. For the same compound, the “Intrinsic Clearance” value ([7]; human hepatocytes, midazolam 0.2 μM) was 0.0101 mL/min/10^6 Cells, the half-life at 0.2 μM ([7]; human, hepatocytes) was 68.3 min and the “Intrinsic Clearance” value ([8]; monkey hepatocytes, midazolam 0.2 μM) was 0.0192 mL/min/10^6 Cells. For the same compound, the half-life at 0.2 μM ([8]; monkey, hepatocytes) was 36 min.
